Measured values taken from patent US8901146B2, “Aminoalkylpyrimidine derivatives as histamine H4 receptor antagonists” (Medicis Pharmaceutical Corporation, priority 2009, dated 2014).

System: Male BALB/c mice
Test: Murine atopic dermatitis model by multiple oxazolone challenges
Assay type: in vivo
Conditions: result in words
Description: Murine Atopic Dermatitis Model by Multiple Oxazolone Challenges
Method: Male BALB/c mice (n=5-7 per group) were sensitised on Day 1 by the topical application of 50 μL of 1% oxazolone in acetone/olive oil (4:1) on the abdominal skin. On days 8, 10, 12, 15, 17, 19, 22, 24 and 26, animals received repeated challenges with 25 μL of 0.2% oxazolone, applied topically on the inner side of their right ear. On days 8-26, 25 μL of a solution of the test compound (prepared by dissolving compound in acetone/olive oil 4:1 and heating) at the desired concentration were administered on the outer side of the right ears. On days 12, 19 and 26, right ear thickness was determined with a calliper one hour after oxazolone application.

| Compound | in vivo activity in the atopic dermatitis model of example 10 |
| --- | --- |
| CNC1CN(c2cc(CNCC3CC3)nc(N)n2)C1 [Example 1b, 4-((Cyclopropylmethylamino)methyl)-6-(3-(methylamino)azetidin-1-yl)pyrimidin-2-amine] | outstanding in vivo activity |
| CNC1CN(c2cc(CNC3CCCC3)nc(N)n2)C1 [Example 1t, 4-((Cyclopentylamino)methyl)-6-(3-(methylamino)azetidin-1-yl)pyrimidin-2-amine] | outstanding in vivo activity |
